Here are results for three molecules from US20040229931A1, “1-Aryl-3-(indol-5-yl) prop-2-en-1-ones, compositions containing them and use” (Aventis Pharma S. A., priority 2003, published 2004).

The target in one data set is T1, Tubulin (Sus scrofa, UniProt P02550+P02554).
T1 construct: Tubulin is purified from pig brains according to published methods; from tissue; host or cells: pig brain
Briefly: Inhibition of polymerization of tubulin (turbidimetry). The data set is classed as biochemical. The note with it: pig brain tubulin 10 μM, turbidity at 350 nm, 37° C. The method, then: Tubulin is purified from pig brains according to published methods (Shelanski et al., Proc. Natl. Acad. Sci. USA, 70, 765-768. Weingarten et al., 1975, Proc. Natl. Acad. Sci. USA, 72, 1858-1862). Briefly, the brains are ground and centrifuged in an extraction buffer. The tubulin contained in the supernatant of the extract undergoes two successive cycles of polymerization at 37° C. and depolymerization at 4° C., before being separated from the MAPs (Microtubule Associated Proteins) by chromatography on a phosphocellulose P11 column (Whatman). The tubulin thus isolated is more than 95% pure. It is stored in a buffer called RB/2 30% glycerol whose composition is 50 mM MES-NaOH [2-(N-morpholino)ethanesulfonic acid], pH 6.8; 0.25 mM MgCl2; 0.5 mM EGTA; 30% glycerol (v/v), 0.2 mM GTP (guanosine-5′-triphosphate).
The polymerization of tubulin to microtubules is monitored by turbidimetry as follows: the tubulin is adjusted to a concentration of 10 μM (1 mg/ml) in RB/2 30% glycerol buffer to which 1 mM GTP and 6 mM MgCl2 are added. The polymerization is triggered by an increase in temperature from 6° C. to 37° C. in a cuvette having an optical path length of 1 cm, placed in a UVIKON 931 spectrophotometer (Kontron) equipped with a thermostated cuvette holder. The increase in the turbidity of the solution is monitored at 350 nm.
The compounds of this invention are dissolved at 10 mM in DMSO and added at variable concentrations (0.5 to 10 μM) to the tubulin solution before polymerization. The IC50 is defined as the concentration of compound which inhibits the rate of polymerization by 50%.

A short description of a further data set: Ames test (mutagenicity). The source says:
(§1) Another problem posed consisted in obtaining products having all the advantages described above without the disadvantages frequently encountered during the study of products of the chalcone family. These disadvantages are (i) the problems of cardiac toxicity, which can be evaluated by measuring the inhibition of Herg receptors, (ii) finally, and to a lesser degree, the problems of mutagenicity, which can be evaluated in particular in the Ames test.
A general note: The Ames test detects mutagens through reverse mutation in bacteria.

Another data set relates to HeLa cells. Briefly: Inhibition of proliferation of HeLa tumor cells ([14C]thymidine incorporation). The note with it: Homo sapiens, 48 hours, read-out: Inhibition of cell proliferation IC50, HeLa. The data set is classed as cell-based. The procedure:
The proliferation of HeLa or HDMEC cells is evaluated by measuring the incorporation of [^14C]thymidine in the following manner. The HeLa cells (epithelial tumor cells of human origin) are cultured in a DMEM medium (Gibco) which contains 10% of foetal calf serum and antibiotics (1% penicillin, 1% streptomycin). To carry out the proliferation test, the cells are inoculated into 96-well Cytostar microplates (Amersham), at the rate of 5000 cells per well. [^14C]Thymidine (0.1 μCi/well) and the products to be evaluated are then added. Variable concentrations of products of up to 10 μM are used; the DMSO (solvent used to solubilize the products) should not exceed 0.5% in the medium. 48 hours after incubation at 37° C., the radioactivity incorporated into the cells is measured by counting the plate in a TR1-LUX counter (Wallac). The IC50 is defined as the concentration of compound which reduces by 50% the radioactivity compared with an untreated control.

For a further data set, the system named is HDMEC cells. Briefly: Inhibition of proliferation of endothelial cells HDMEC ([14C]thymidine incorporation). The data set is classed as cell-based. The note with it: Homo sapiens, Endothelial cell, 48 hours. The method, then:
The evaluation of the detachment of the endothelial cells in vitro is determined in the following manner. HDMEC cells (Human Dermal Microvascular Endothelial Cells, Promocell, c-122102) are cultured in an ECGM-MV medium which contains 5% foetal calf serum, growth factors (EGF 10 ng/ml, hydrocortisone 1 μg/ml, 0.4% growth supplement with heparin) and antibiotics (amphoteracin 50 ng/ml, gentamycin 50 μg/ml). For the detachment test, the HDMECs are inoculated at 5 000 cells in clear-bottomed 96-well plates (Costar) precoated with fibronectin (10 μg/ml) or vitronectin (1 μg/ml) or gelatin. Twenty-four hours later, the culture medium is replaced with ECGM-MV 0.1% BSA medium containing the products indicated. […] The fluorescence of the cells which remain attached to the substratum of the well is counted using a fluorimeter, Spectrafluor Plus (Tecan excitation 485 nm, and emission 535 nm). The data are the mean of six different samples and are expressed as the percentage of the control (untreated cells).
The proliferation of HeLa or HDMEC cells is evaluated by measuring the incorporation of [^14C]thymidine in the following manner. […] [^14C]Thymidine (0.1 μCi/well) and the products to be evaluated are then added. […] 48 hours after incubation at 37° C., the radioactivity incorporated into the cells is measured by counting the plate in a TR1-LUX counter (Wallac). […]

The next data set concerns the target Herg receptors (Homo sapiens, UniProt Q12809). Briefly: Inhibition of Herg receptors (cardiac toxicity).
Source text: as §1

Data set [1] deals with C51 murine adenocarcinoma (colon tumor). The data set can be described thus: Evaluation of tumor necrosis in vivo. Conditions: 35 mg/kg, intravenous injection, 24 hours after treatment, female BALB/c mice; listed as EXAMPLE 2. The source says: Mice are bred either by IFFA-CREDO (Domaine des Oncins, 69210 L'Arbresle, France) from a breed obtained by Jackson Laboratories, Bar Harbor, Me., USA, or alternatively by Charles River France (76410 St Aubin les Elbeuf, France) from a breed obtained by Charles River, USA. The mice initially weigh more than 18 g at the start of the trial. They have free access to food (UAR reference 113, Villemoisson, 91160 Epinay sur Orge, France) and to water.
The tumors used are currently transplanted in our laboratories. All these tumors are at the Frederick Cancer Research Facility (Frederick, Md., USA) at the repository of frozen tumors of the National Cancer Institute (NCI), or at the American Type Culture Collection (ATCC, Rockville, Md., USA).
The techniques for tumor transplantation, chemotherapy and data analysis have been presented in detail (Corbett et al., 1982a; Corbett et al., 1982b).
To summarize, the animals necessary for one experiment are assembled and bilaterally implanted on day 0 (zero).
The growth of solid tumors develops freely up to the desired size. […]
The samples are then treated, cut into sections, stained with haematoxylin, eosin and saffron yellow, and are then examined […]. The tumor necrosis (necrosis±degeneration) is evaluated microscopically using a scale of extent from 0 to 5: […]
The necrosis due to the experiment was evaluated on an untreated control. […]

SMILES strings stand for the structures. Bounds are passed on as bounds.

T1 sequence (P02550 whole entry): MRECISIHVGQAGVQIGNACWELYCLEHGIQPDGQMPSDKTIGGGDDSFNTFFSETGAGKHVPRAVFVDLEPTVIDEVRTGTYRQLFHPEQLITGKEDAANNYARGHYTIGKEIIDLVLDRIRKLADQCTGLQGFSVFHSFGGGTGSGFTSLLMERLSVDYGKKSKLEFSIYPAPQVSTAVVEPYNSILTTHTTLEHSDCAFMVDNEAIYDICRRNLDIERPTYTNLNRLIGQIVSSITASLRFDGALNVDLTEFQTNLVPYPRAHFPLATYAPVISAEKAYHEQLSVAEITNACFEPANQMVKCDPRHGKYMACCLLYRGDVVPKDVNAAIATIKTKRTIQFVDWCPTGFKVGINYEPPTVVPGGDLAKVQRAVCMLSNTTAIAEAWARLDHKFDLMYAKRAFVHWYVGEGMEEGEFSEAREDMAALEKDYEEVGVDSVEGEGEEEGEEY
T1 sequence (P02554 whole entry): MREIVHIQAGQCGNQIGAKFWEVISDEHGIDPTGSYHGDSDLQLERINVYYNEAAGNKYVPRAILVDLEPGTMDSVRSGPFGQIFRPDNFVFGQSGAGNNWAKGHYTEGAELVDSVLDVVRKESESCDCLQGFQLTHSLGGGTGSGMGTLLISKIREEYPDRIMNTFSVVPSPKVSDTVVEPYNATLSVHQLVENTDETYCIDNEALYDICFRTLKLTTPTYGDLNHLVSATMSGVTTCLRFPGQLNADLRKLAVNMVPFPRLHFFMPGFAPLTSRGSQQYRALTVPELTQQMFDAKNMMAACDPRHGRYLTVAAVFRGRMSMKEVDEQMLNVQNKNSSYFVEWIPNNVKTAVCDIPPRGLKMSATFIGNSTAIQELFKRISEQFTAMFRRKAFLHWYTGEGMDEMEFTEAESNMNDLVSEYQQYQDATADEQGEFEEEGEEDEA
Herg receptors, sequence (Q12809 whole entry): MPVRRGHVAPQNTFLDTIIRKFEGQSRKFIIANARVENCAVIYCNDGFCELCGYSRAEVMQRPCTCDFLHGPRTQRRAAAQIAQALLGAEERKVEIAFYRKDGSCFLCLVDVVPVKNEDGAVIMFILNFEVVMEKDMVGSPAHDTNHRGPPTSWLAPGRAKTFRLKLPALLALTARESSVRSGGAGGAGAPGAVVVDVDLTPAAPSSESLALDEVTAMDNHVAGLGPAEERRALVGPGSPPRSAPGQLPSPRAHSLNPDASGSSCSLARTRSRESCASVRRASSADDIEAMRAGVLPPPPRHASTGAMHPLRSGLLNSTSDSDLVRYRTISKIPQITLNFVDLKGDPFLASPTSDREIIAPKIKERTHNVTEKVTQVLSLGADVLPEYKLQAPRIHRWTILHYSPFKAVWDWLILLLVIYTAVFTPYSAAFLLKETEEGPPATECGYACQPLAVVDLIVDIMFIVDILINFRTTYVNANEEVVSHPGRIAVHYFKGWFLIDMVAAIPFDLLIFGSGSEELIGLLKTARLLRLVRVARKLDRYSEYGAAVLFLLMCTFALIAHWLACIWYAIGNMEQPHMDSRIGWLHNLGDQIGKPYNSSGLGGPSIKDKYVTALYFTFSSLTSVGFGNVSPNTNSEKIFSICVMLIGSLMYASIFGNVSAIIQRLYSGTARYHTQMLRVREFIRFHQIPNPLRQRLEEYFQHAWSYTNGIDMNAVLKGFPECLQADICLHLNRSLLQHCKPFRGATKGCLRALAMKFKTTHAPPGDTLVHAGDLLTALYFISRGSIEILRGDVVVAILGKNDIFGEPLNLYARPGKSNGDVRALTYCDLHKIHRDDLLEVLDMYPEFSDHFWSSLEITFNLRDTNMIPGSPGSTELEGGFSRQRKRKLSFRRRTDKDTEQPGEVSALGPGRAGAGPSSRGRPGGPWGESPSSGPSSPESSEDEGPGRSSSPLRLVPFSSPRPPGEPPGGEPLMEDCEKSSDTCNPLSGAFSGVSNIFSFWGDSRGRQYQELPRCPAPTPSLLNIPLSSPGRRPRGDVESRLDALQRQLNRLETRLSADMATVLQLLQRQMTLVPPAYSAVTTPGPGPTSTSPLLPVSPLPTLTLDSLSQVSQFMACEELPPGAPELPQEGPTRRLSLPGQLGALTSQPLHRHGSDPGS

The melting point is the temperature, or range, at which the solid turns liquid. On to `COc1ccc(OC)c(C(=O)/C(C)=C/c2ccc3c(ccn3CCO)c2)c1` [Example 3, E-2-Methyl-3-[1-(2-hydroxyethyl)-1-H-indol-5-yl]-1-(2,5-dimethoxyphenyl)propenone], for which the melting point was determined as 112 °C. At Tubulin, this molecule yielded an IC50 of 830 nM. In “Ames test (mutagenicity)”, the Ames entry is on record as “negative”.

Molecule `COc1cc(C(=O)/C(C)=C/c2ccc3c(ccn3CCO)c2)cc(OC)c1OC` [Example 1, E-2-Methyl-3-[1-(2-hydroxyethyl)indol-5-yl]-1-(3,4,5-trimethoxyphenyl)propenone] gave a melting point of 119 °C. In addition, at Tubulin, the IC50 was found to be 800 nM. Further, the IC50 in the data set on HeLa cells was in the range of 3.48 to 3.75 nM. Besides, the Ames entry in the data set “Ames test (mutagenicity)” is given as “negative”. The IC50 in the data set with HDMEC cells lay within 0.97 to 3.29 nM.

The molecule `COc1cc(C(=O)/C(C)=C/c2ccc3c(ccn3CCO)c2)cc2c1OCO2` [Example 2, E-2-Methyl-3-[1-(2-hydroxyethyl)indol-5-yl]-1-(3-methoxy-4,5-methylenedioxyphenyl)propenone] registered a melting point of 83 °C. In addition, the IC50 at Tubulin was 600 nM. Moreover, the IC50 with HeLa cells was in the range of 1.23 to 1.62 nM. For the same molecule, the Ames result in the data set “Ames test (mutagenicity)” was “negative”. Further, the IC50 against Herg receptors is > 30000 nM. Further, the “C51 colon Tumor necrosis In vivo (grade, scale 0 to 5)” value in data set [1] is on record as 5 (considerable, >75%). This molecule also registered an IC50 in the data set on HDMEC cells of 0.22 to 0.61 nM.
